Experimental data published in the Kinase Knowledgebase extract (Sharma et al. 2016).

Assays:
PIK3CG (human) = PIK3CG (human) (UniProt P48736); assay: Assessment of PIK3CG Kinase Activity
PIK3CA (human) = PIK3CA (human) (UniProt P42336); assay: Assessment of PIK3CA Kinase Activity
PIK3CA (human), sequence (P42336 whole entry, looked up): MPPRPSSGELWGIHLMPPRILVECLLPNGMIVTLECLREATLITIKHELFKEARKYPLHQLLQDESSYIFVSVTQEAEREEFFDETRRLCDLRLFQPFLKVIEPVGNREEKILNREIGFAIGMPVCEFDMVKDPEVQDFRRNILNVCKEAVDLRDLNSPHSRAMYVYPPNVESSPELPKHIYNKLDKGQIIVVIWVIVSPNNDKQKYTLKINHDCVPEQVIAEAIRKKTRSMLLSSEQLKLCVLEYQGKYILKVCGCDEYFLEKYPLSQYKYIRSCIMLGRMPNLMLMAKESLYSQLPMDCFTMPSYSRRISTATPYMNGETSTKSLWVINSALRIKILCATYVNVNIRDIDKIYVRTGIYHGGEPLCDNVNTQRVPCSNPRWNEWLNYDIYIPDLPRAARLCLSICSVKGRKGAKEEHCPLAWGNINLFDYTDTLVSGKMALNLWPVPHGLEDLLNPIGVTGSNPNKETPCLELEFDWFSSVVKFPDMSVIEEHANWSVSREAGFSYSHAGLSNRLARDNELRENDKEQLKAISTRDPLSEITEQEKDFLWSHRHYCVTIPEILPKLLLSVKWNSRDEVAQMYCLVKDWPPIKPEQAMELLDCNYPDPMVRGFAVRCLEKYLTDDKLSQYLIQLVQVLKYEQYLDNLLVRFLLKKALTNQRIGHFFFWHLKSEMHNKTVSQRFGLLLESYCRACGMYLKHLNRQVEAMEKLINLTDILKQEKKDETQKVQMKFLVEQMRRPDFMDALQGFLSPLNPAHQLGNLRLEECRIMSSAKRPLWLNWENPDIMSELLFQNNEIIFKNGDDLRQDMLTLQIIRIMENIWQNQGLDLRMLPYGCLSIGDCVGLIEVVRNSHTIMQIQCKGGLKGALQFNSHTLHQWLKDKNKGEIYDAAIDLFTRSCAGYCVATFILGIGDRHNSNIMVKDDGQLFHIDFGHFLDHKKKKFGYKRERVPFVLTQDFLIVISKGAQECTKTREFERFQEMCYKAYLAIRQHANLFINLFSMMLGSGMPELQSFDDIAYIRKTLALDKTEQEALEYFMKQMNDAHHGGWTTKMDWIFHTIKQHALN

PIK3CG (human), sequence (P48736 whole entry, looked up): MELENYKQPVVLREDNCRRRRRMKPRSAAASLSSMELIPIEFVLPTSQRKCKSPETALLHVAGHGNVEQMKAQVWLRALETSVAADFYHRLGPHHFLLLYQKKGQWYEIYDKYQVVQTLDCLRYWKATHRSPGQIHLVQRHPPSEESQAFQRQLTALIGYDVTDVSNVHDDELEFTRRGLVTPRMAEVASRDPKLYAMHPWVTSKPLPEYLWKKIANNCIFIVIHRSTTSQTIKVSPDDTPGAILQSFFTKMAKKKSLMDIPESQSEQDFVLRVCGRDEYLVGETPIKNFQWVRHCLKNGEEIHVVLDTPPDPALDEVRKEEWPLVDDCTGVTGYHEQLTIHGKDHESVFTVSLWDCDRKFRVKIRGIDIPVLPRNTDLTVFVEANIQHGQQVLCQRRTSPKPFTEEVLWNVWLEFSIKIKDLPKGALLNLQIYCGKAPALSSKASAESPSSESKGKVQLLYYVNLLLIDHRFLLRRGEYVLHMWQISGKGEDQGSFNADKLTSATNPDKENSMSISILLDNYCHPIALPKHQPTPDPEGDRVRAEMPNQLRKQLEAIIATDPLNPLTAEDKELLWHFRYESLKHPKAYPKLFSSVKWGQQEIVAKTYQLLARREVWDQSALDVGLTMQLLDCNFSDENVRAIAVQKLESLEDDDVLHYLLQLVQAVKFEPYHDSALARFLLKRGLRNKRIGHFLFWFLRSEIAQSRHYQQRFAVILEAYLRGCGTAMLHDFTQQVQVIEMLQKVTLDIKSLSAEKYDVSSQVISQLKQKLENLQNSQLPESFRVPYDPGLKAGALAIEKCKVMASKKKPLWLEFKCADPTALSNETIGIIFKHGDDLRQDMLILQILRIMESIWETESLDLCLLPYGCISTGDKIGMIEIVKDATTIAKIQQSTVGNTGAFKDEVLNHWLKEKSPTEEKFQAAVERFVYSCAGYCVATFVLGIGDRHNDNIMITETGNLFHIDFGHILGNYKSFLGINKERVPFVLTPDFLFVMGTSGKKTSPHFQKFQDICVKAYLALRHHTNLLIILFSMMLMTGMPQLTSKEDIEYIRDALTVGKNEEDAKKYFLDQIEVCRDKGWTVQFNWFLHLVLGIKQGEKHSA

CN1CCc2c(nc(-c3ccc(NC(=O)Nc4cccnc4)cc3)nc2N2C3CCC2COC3)C1 was tested, and the IC50 (PIK3CG (human)) was 12000 nM and the IC50 (PIK3CA (human)) was 1110 nM.
With O=C(Nc1ccc(-c2nc3c(c(N4CC5CCC(C4)O5)n2)CCNC3)cc1)Nc1cccnc1 the IC50 (PIK3CG (human)) was 14000 nM and the IC50 (PIK3CA (human)) was 776 nM.
For CN1CCc2c(nc(-c3ccc(NC(=O)Nc4cccnc4)cc3)nc2N2CC3CCC(C2)O3)C1, the IC50 (PIK3CG (human)) was 9500 nM and the IC50 (PIK3CA (human)) was 674 nM.
CNC(=O)Nc1ccc(-c2nc3c(c(N4CCOCC4)n2)CNC3)cc1 was tested, and the IC50 (PIK3CG (human)) was 67 nM and the IC50 (PIK3CA (human)) was 5 nM.
Molecule CNC(=O)Nc1ccc(-c2nc3c(c(N4CC5CCC(C4)O5)n2)CCN(C)C3)cc1 has an IC50 (PIK3CG (human)) greater than 10000 nM and an IC50 (PIK3CA (human)) of 3340 nM.
CS(=O)(=O)N1CCc2c(nc(-c3ccc(NC(=O)Nc4cccnc4)cc3)nc2N2C3CCC2COC3)C1 showed an IC50 (PIK3CG (human)) of 3990 nM and an IC50 (PIK3CA (human)) of 118 nM.
With CNC(=O)Nc1ccc(-c2nc3c(c(N4CCOCC4)n2)CN(S(C)(=O)=O)C3)cc1 the IC50 (PIK3CG (human)) was 23 nM and the IC50 (PIK3CA (human)) was 1 nM.
With CN(C)C1CCN(C(=O)c2ccc(NC(=O)Nc3ccc(-c4nc5c(c(N6CCOCC6)n4)CNC5)cc3)cc2)CC1 the IC50 (PIK3CG (human)) was 74 nM and the IC50 (PIK3CA (human)) was 9 nM.
For CNC(=O)Nc1ccc(-c2nc3c(c(N4CC5CCC(C4)O5)n2)CN(S(C)(=O)=O)C3)cc1, the IC50 (PIK3CG (human)) was 116 nM and the IC50 (PIK3CA (human)) was 6 nM.
Molecule CN(C)C1CCN(C(=O)c2ccc(NC(=O)Nc3ccc(-c4nc5c(c(N6CC7CCC(C6)O7)n4)CNC5)cc3)cc2)CC1 has an IC50 (PIK3CG (human)) greater than 10000 nM and an IC50 (PIK3CA (human)) of 110 nM.
CNC(=O)Nc1ccc(-c2nc3c(c(N4C5CCC4COC5)n2)CNC3)cc1 showed an IC50 (PIK3CG (human)) of 7290 nM and an IC50 (PIK3CA (human)) of 288 nM.
For CNC(=O)Nc1ccc(-c2nc3c(c(N4CC5CCC(C4)O5)n2)CNC3)cc1, the IC50 (PIK3CG (human)) was 3390 nM and the IC50 (PIK3CA (human)) was 39 nM.
Molecule CNC(=O)Nc1ccc(-c2nc3c(c(N4CC5CCC(C4)O5)n2)CCN(S(C)(=O)=O)C3)cc1 has an IC50 (PIK3CG (human)) greater than 10000 nM and an IC50 (PIK3CA (human)) of 557 nM.
With CS(=O)(=O)N1CCc2c(nc(-c3ccc(NC(=O)Nc4cccnc4)cc3)nc2N2CCOCC2)C1 the IC50 (PIK3CG (human)) was 44 nM and the IC50 (PIK3CA (human)) was 3.5 nM.
